Measurements reported in article PMC11284788, “NN1213 – A Potent, Long-Acting, and Selective Analog of Human Amylin” (Journal of Medicinal Chemistry, 2024).
Read-outs that look alike come from different tables or passages of the source. Values belong to the molecule of their own block, whether it stands above or below them. Numbered stars: 1 amine (or outer) side, 2 acyl side, 3 side chain; on linkers, the order of the positions; unused ones are H or OH. Bridge positions count the residues as written; N and C are the ends. Side chains are listed from the residue outwards. Peptide text beside a SMILES is read from it. * marks the point of attachment. C20 diacid = O=C(O)CCCCCCCCCCCCCCCCCCC(=O)*; γGlu = O=C(O)[C@H](CCC(=O)[*:2])N[*:1]

Experiments:
[1] = system: cAMY1R; test: Species-specific cAMP assay, cAMY1R; conditions: cAMP HTRF, transiently transfected BHK cells, 30 min room temperature, five experiments
[2] = system: cCTR; test: Species-specific cAMP assay, cCTR; conditions: cAMP HTRF, transiently transfected BHK cells, 30 min room temperature, five experiments
[3] = system: cAMY3R; test: Species-specific cAMP assay, cAMY3R; conditions: cAMP HTRF, transiently transfected BHK cells, 30 min room temperature, five experiments
[4] = HMWP content by size-exclusion chromatography; format: physicochemical; conditions: analogs 1–9 (pH 7.5 series); covalent dimers and polymers prior to fibril formation testing, SEC, % of total absorbance area at 215 nm
Protocol: The stability properties of the individual amylin analogs were assessed with respect to their propensity toward amyloid fibril formation. The relative amount of covalent dimers and polymers (HMWP) present prior to fibril formation testing was measured as a control for the potential inhibitory effect of HMWP on fibril formation propensity as reported elsewhere.[39]
Elution was performed under isocratic conditions with the following mobile phase prepared in Milli-Q water (Millipore A/S): 0.5 M NaCl, 10 mM sodium dihydrogen monohydrate, 5 mM ortho-phosphoric acid, 50% (v/v) 2-propanol. The amount of HMWP was determined as the absorbance area of the corresponding peaks given in percentage of the total absorbance area. The molar extinction coefficients of the molecules eluting in the HMWP fraction and the main peak was assumed to be equal.

[5] = target: T1, rat CTR (Rattus norvegicus, UniProt P32214); test: cAMP FlashPlate assay, rat CTR; format: cell-based; conditions: cAMP (rat receptor assay)
T1 construct: expressed in transfected cells; host or cells: BHK tk-ts 13, transient (FuGENE 6)
T1 sequence (P32214 25-479 isoform P32214-2 limits assumed): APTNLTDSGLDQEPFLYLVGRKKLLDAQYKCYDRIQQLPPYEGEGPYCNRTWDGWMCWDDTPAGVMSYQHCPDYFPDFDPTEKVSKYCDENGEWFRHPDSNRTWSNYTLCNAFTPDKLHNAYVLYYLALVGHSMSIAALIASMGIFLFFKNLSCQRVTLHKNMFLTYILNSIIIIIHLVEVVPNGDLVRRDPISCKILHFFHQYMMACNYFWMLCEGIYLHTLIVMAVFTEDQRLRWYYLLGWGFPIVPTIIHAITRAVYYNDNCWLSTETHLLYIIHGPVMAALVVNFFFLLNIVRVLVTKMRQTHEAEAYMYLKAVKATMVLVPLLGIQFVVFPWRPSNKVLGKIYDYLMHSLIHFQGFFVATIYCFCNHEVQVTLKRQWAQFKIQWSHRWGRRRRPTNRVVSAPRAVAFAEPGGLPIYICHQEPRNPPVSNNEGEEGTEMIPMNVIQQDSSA

[6] = target: T2, hAMY3R (Homo sapiens, UniProt O60896+P30988); test: cAMP-responsive element luciferase reporter assay, human AMY3R; format: cell-based; design: expressed in transfected cells; conditions: for EC50: luciferase (human receptor assay)
T2 sequence (P30988 25-474): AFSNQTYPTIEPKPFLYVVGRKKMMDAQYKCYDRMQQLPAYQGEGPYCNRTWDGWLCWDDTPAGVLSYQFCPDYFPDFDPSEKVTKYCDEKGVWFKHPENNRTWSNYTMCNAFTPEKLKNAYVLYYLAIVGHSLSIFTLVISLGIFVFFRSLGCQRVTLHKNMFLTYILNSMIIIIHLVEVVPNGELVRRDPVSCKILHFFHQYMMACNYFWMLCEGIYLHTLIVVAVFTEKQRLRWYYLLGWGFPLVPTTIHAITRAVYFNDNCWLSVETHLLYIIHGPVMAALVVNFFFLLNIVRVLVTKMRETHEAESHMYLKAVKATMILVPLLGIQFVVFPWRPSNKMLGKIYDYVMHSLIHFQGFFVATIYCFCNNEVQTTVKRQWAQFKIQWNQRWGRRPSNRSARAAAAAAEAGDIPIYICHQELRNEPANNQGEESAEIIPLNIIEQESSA
T2 sequence (O60896 24-148 partner): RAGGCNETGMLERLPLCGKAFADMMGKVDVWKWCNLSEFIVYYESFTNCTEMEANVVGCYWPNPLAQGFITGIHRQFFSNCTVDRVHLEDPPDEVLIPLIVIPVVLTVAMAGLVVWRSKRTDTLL

[7] = target: T3, hCTR (Homo sapiens, UniProt P30988); test: cAMP-responsive element luciferase reporter assay, human CTR; format: cell-based; conditions: luciferase (human receptor assay)
T3 sequence (P30988 25-474): T2 sequence (P30988 25-474)

[8] = ThT assay: fibril formation propensity and peptide recovery; format: physicochemical
Protocol: The stability properties of the individual amylin analogs were assessed with respect to their propensity toward fibril formation, expressed as the time until fibril formation (measured as Lag time) and loss of dissolved peptide (assessed as Peptide Recovery). […] Samples were prepared as described previously (using the same methodology and materials) for a novel amylin-based analog candidate compound.[7]
Briefly, each compound was dissolved in 10 mM of glycylglycine buffer (pH 4.0) or HEPES buffer (pH 7.5) to a concentration of 250 μM, followed by ThT stock solution to a final concentration of 1 μM. Each solution was aliquoted into a microtiter plate (200 μL/well) sealed with a transparent adhesive sheet. Mechanical stress was applied at 37 °C incubation (960 rpm, 1 mm amplitude) with 20 min fluorescence reading intervals for 45 h (filters: excitation 444 nm; emission 485 nm). Each peptide was tested in experiments consisting of four replicas (e.g., four wells on the same plate), and the lag time of each replica was determined by visual inspection of the fluorescence-versus-time plot. For wells where no fibril formation could be detected, the lag time was set longer than the test period (>45 h). The lag time of the peptide was set to the lowest lag time of the four replicates (conservative estimate). Some of the peptides were tested in more than one experiment, and the lag time results given in Tables 6 and 9 represent the average of these experiments. The ThT time course data given in Supporting Information represent the average and SEM of each experiment.[40] After analysis, wells representing individual replicas were pooled, and the residual soluble peptide was isolated using centrifugation (20,000 g/30 min at room temperature) followed by […] filtration. The amount of residual dissolved peptide was determined using an HPLC with a flow rate of 2 mL/min at 30 °C and 215/276 nm detection. A gradient combining eluent A (7.7% w/w acetonitrile, 200 mM Na2SO4, 20 mM NaH2PO4, 20 mM Na2HPO4, pH 7.2) and eluent B (65.5% w/w acetonitrile) was applied. The amount of residual dissolved peptide was reported on a relative scale (Peptide Recovery) to the amount of dissolved peptide prior to mechanical stress.

[9] = target: T4, rat AMY3R (Rattus norvegicus, UniProt P32214+Q9JJ73); test: cAMP FlashPlate assay, rat AMY3R; format: cell-based; conditions: for EC50: cAMP (rat receptor assay)
T4 construct: expressed in transfected cells; host or cells: BHK tk-ts 13, transient co-transfection (FuGENE 6)
T4 sequence (P32214 25-479 isoform P32214-2 limits assumed): T1 sequence (P32214 25-479 isoform P32214-2 limits assumed)
T4 sequence (Q9JJ73 23-147 partner): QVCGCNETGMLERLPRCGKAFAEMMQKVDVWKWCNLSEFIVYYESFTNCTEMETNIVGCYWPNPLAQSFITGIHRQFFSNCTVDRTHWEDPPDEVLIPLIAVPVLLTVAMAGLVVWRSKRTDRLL

[10] = Solubility versus pH profile
[11] = system: rats; conditions: cited from earlier work
Text: SEM is the standard error of the mean. || From the daily consumption of food observed in the DIO rats, the steep decrease around day 2 is a typical pattern observed with appetite-reducing agents in rodents.[31]

[12] = single sc injection of 30 nmol/kg, published previously

Structure (SMILES): CC(C)C[C@H](NC(=O)[C@H](CCCCN)NC(=O)CNC(=O)[C@H](CC(C)C)NC(=O)[C@@H](NC(=O)[C@@H]1CSSC[C@H](N)C(=O)N[C@@H](CO)C(=O)N[C@@H](CC(N)=O)C(=O)N[C@@H](CC(C)C)C(=O)N[C@@H](CO)C(=O)N[C@@H]([C@@H](C)O)C(=O)N1)C(C)C)C(=O)N[C@@H](CO)C(=O)N[C@@H](CCC(N)=O)C(=O)N[C@@H](CCC(=O)O)C(=O)N[C@@H](CC(C)C)C(=O)N[C@@H](Cc1c[nH]cn1)C(=O)N[C@@H](CCCCN)C(=O)N[C@@H](CC(C)C)C(=O)N[C@@H](CCC(N)=O)C(=O)N[C@H](C(=O)N[C@@H](Cc1ccc(O)cc1)C(=O)N1CCC[C@H]1C(=O)N[C@@H](CCCNC(=N)N)C(=O)N[C@H](C(=O)N[C@@H](CC(N)=O)C(=O)N[C@H](C(=O)NCC(=O)N[C@@H](CO)C(=O)NCC(=O)N[C@H](C(=O)N1CCC[C@H]1C(N)=O)[C@@H](C)O)[C@@H](C)O)[C@@H](C)O)[C@@H](C)O [sCT, salmon calcitonin, reference compound]
cAMY1R pEC50 [1]: 10.61
cCTR pEC50 [2]: 11.27
cAMY3R pEC50 [3]: 11.16

HMWP [4]: 7%
EC50 ([5]; Tables S12 and S14, read-out: rCTR pEC50 (converted)): 14.5 nM
EC50 ([5]; transiently transfected BHK tk-ts 13 cells, FlashPlate, 30 min room temperature, 2% HSA, read-out: rCTR EC50): 14.3 nM
EC50 ([6]; Tables S12 and S14, read-out: hAMY3R pEC50 (converted)): 0.182 nM
EC50 ([6]; BHK cells stably expressing hCTR+RAMP3 and CRE-luciferase, 3 h, 37 °C, 10% FBS, read-out: hAMY3R EC50): 0.18 nM
ratio hCTR/hAMY3R ([6]; ratio of luciferase EC50 values): 3.9
EC50 ([7]; Tables S12 and S14, read-out: hCTR pEC50 (converted)): 0.692 nM
EC50 ([7]; BHK cells stably expressing hCTR and CRE-luciferase, 3 h, 37 °C, 10% FBS, read-out: hCTR EC50): 0.697 nM
ThT, pH 7.5 lag-time ([8]; 250 μM peptide, 10 mM HEPES pH 7.5, 1 μM ThT, 37 °C, 960 rpm, 45 h, lowest of four replicas, average of experiments): >45 h
recovery ([8]; pH 7.5, residual dissolved peptide after 45 h of shaking, centrifugation and 0.22 μm filtration, HPLC, relative to amount before stress): 100%
EC50 ([9]; Tables S12 and S14, read-out: rAMY3R pEC50 (converted)): 0.468 nM
EC50 ([9]; transiently transfected BHK tk-ts 13 cells, FlashPlate, 30 min room temperature, 2% HSA, read-out: rAMY3R EC50): 0.463 nM
ratio rCTR/rAMY3R ([9]; ratio of cAMP EC50 values): 31
solubility kinetic ([10]; bis-tris-propane buffer, pH 6, aqueous buffer): ≥ 200 µM
solubility kinetic ([10]; bis-tris-propane buffer, pH 6.5, aqueous buffer): ≥ 200 µM
solubility kinetic ([10]; bis-tris-propane buffer, pH 7, aqueous buffer): ≥ 200 µM
solubility kinetic ([10]; bis-tris-propane buffer, pH 7.5, aqueous buffer): ≥ 200 µM
solubility kinetic ([10]; bis-tris-propane buffer, pH 8, aqueous buffer): ≥ 200 µM
solubility kinetic ([10]; lactate buffer, pH 4, aqueous buffer): ≥ 200 µM
solubility kinetic ([10]; lactate buffer, pH 5, aqueous buffer): ≥ 200 µM
Structure (SMILES): CC(C)C[C@H](NC(=O)[C@H](CCCNC(=N)N)NC(=O)[C@H](CCC(N)=O)NC(=O)[C@@H](NC(=O)[C@H](C)NC(=O)[C@@H]1CSSC[C@H](NC(=O)[C@@H](N)CCCCNC(=O)CC[C@H](NC(=O)CCCCCCCCCCCCCCCCCCC(=O)O)C(=O)O)C(=O)N[C@@H](CC(N)=O)C(=O)N[C@@H]([C@@H](C)O)C(=O)N[C@@H](C)C(=O)N[C@@H]([C@@H](C)O)C(=O)N1)[C@@H](C)O)C(=O)N[C@@H](C)C(=O)N[C@@H](CC(=O)O)C(=O)N[C@@H](Cc1ccccc1)C(=O)N[C@@H](CC(C)C)C(=O)N[C@@H](CCCNC(=N)N)C(=O)N[C@@H](Cc1c[nH]cn1)C(=O)N[C@@H](CO)C(=O)N[C@@H](CO)C(=O)N[C@@H](CCC(N)=O)C(=O)N[C@@H](CC(N)=O)C(=O)N[C@@H](Cc1ccccc1)C(=O)NCC(=O)N[C@@H](C)C(=O)N1CCC[C@H]1C(=O)N[C@@H](CC(C)C)C(=O)N[C@@H](CO)C(=O)N[C@@H](CO)C(=O)N[C@H](C(=O)N1CCC[C@H]1C(=O)N[C@H](C(=O)NCC(=O)N[C@@H](CO)C(=O)N[C@@H](CC(=O)O)C(=O)N[C@H](C(=O)N[C@@H](Cc1ccc(O)cc1)C(N)=O)[C@@H](C)O)C(C)C)[C@@H](C)O [Peptide 1] (H-K([γGlu-C20 diacid])CNTATCATQRLADFLRHSSQNFGAPLSSTPVGSDTY-NH2; disulfide 2-7)

Structure (SMILES): CC[C@H](C)[C@H](NC(=O)[C@@H]1CCCN1C(=O)CNC(=O)[C@H](Cc1ccccc1)NC(=O)[C@H](CC(N)=O)NC(=O)[C@H](CC(N)=O)NC(=O)[C@H](CO)NC(=O)[C@H](CO)NC(=O)[C@H](Cc1c[nH]cn1)NC(=O)[C@H](CCCNC(=N)N)NC(=O)[C@H](CC(C)C)NC(=O)[C@H](Cc1ccccc1)NC(=O)[C@H](CCC(=O)O)NC(=O)[C@H](C)NC(=O)[C@H](CC(C)C)NC(=O)[C@H](CCCNC(=N)N)NC(=O)[C@H](CCC(N)=O)NC(=O)[C@@H](NC(=O)[C@H](C)NC(=O)[C@@H]1CSSC[C@H](NC(=O)[C@H](CCCCN)NC(=O)CC[C@H](NC(=O)CCCCCCCCCCCCCCCCCCC(=O)O)C(=O)O)C(=O)N[C@@H](CC(N)=O)C(=O)N[C@@H]([C@@H](C)O)C(=O)N[C@@H](C)C(=O)N[C@@H]([C@@H](C)O)C(=O)N1)[C@@H](C)O)C(=O)N[C@@H](CC(C)C)C(=O)N1CCC[C@H]1C(=O)N1CCC[C@H]1C(=O)N[C@H](C(=O)N[C@@H](CC(N)=O)C(=O)N[C@H](C(=O)NCC(=O)N[C@@H](CO)C(=O)N[C@@H](CC(N)=O)C(=O)N[C@H](C(=O)N1CCC[C@H]1C(N)=O)[C@@H](C)O)C(C)C)[C@@H](C)O [cagrilintide]
reduction in food intake in rats [11]: 45%
reduction of food intake 0−24 h [11, 12]: 85%
reduction of food intake 24–48 h [11, 12]: 84%
